# Data as given in PMC2639639, “Identification of Three Classes of Heteroaromatic Compounds with Activity against Intracellular Trypanosoma cruzi by Chemical Library Screening” (PLoS Neglected Tropical Diseases, 2009).
# Read-outs that look alike come from different tables or passages of the source.
# Experiments:
# [1] = test system: T. cruzi (Tulahuen strain) expressing β-galactosidase; assay: T. cruzi growth inhibition assay (β-gal activity, infection of NIH/3T3 cells); type: cell-based, Trypanosoma cruzi
# Experimental: NIH/3T3 cells and parasites were harvested, washed once and resuspended in DMEM supplemented with 2% FBS and Pen-Strep-Glut. […] Different numbers of NIH/3T3 cells were seeded in 96-well plates. After 3 h, compounds were added at the indicated concentrations and mixed by pipetting. BZN tablets (Rochagan, Roche) dissolved in DMSO and 4 µM Amphotericin B solution (Sigma-Aldrich) were used as positive controls. Different numbers of T. cruzi parasites were added in a final volume of 200 µl/well. After 4 days, 50 µl of PBS containing 0.5% of the detergent NP40 and 100 µM Chlorophenol Red-β-D-galactoside (CPRG) (Fluka) were added. Plates were incubated at 37°C for 4 h and absorbance was read at 590 nm using a Tecan Spectra Mini plate reader.
# To calculate the Z′ factor, we used the formula described by Zhang et al.: Z′ = 1−[(3σc++3σc−) / |μc+−μc−|] where σc+ = standard deviation (SD) of positive control, σc− = SD of negative control, μc+ = mean of positive control, μc− = mean of negative control. Subsequently, the best ratio was used for all growth inhibition assays (50.000 cells and parasites, multiplicity of infection (MOI) 1∶1).
# To determine IC50 values, β-gal activity (Abs590) was plotted against compound concentration for each compound. The IC50 was determined as the concentration at which the activity (absorbance) was half that in the absence of compound. Mean IC50 values are the average of independent experiments performed in triplicate on three different days.
# NIH/3T3 cells = assay: Cytotoxicity assay (Alamar Blue) on NIH/3T3 cells; type: cell-based; conditions: 4-day assay on NIH/3T3 cells
# Experimental: (§1) Cells (NIH/3T3 or HepG2) were washed and plated at a density of 50,000 cells/well of 96-well plates in 200 µl and allowed to adhere for 3 h. Twenty-four hour assays were done in DMEM without phenol red supplemented with 10% FBS and Pen-Strep-Glut, while 4-day assays were done in the same medium containing 2% FBS. Drugs were added and mixed. After 1 or 4 days, 20 µl of Alamar Blue (Biosource, Invitrogen) was added. Plates were incubated for 4 h (HepG2) or 6 h (NIH/3T3) at 37°C and fluorescence was read using a Labsystems Fluoroskan II plate reader (excitation: 544 nm, emission: 590 nm) .
# (§2) To determine TC50 values, fluorescence was plotted against inhibitor concentration. TC50 was determined as the concentration at which cytotoxicity (fluorescence) was half that in the absence of inhibitor.
# mammalian cells = assay: Cytotoxicity on mammalian cells (cell type not given); type: cell-based; conditions: cells and duration not stated
# Experimental: as §1, §2
# [2] = Trypanosoma cruzi, TULAHUEN, NIH3T3, 96 h, β-gal T. cruzi Tulahuen, 50.000 NIH/3T3 cells and parasites (MOI 1:1), 4 days, read-out: IC50 Intracellular growth
# [3] = Trypanosoma cruzi, TULAHUEN, NIH3T3, other confirmed hits that retained activity at 5 µg/ml, read-out: IC50 < 1 µg/ml
# [4] = Trypanosoma cruzi, TULAHUEN, NIH3T3, 96 h, read-out: IC50 Intracellular growth
# [5] = β-gal T. cruzi Tulahuen, 50.000 NIH/3T3 cells and parasites (MOI 1:1), 4 days, read-out: IC50 Intracellular growth
smiles,measurement,setting,value
"O=C(NN=Cc1ccc(-c2cccc(Cl)c2Cl)o1)c1ccc(Br)cc1 [PCH4, 4-bromo-N′-{[5-(2,3-dichlorophenyl)-2-furyl]methylene}benzohydrazide]",IC50,[1]; [2],> 10000 nM
"O=C(Cn1cnc([N+](=O)[O-])n1)Nc1cc(C(F)(F)F)ccc1Cl [NT6, N-[2-chloro-5-(trifluoromethyl)phenyl]-2-(3-nitro-1H-1,2,4-triazol-1-yl)acetamide]",IC50,[1]; [2],1130 ± 378 nM
"CCOC(=O)c1ccc(Nc2nc3nonc3nc2NC(C)C)cc1 [ethyl 4-{[6-(isopropylamino)[1,2,5]oxadiazolo[3,4-b]pyrazin-5-yl]amino}benzoate]",IC50,[1]; [3],> 1 µg/mL
same,TC50 > 25 mg/ml,NIH/3T3 cells,NO (> 25 mg/ml)
"O=C(NN=Cc1ccc(-c2cc(Cl)ccc2Cl)o1)c1ccccc1 [PCH9, N′-{[5-(2,5-dichlorophenyl)-2-furyl]methylene}benzohydrazide]",IC50,[1]; [2],960 ± 300 nM
"Cc1ccc2n(c1)cc(C)[n+]2CC(=O)c1ccc(-c2ccccc2)cc1.[Br-] [1-[2-(4-biphenylyl)-2-oxoethyl]-2,6-dimethylimidazo[1,2-a]pyridin-1-ium bromide]",IC50,[1]; [3],> 1 µg/mL
same,TC50 > 25 mg/ml,NIH/3T3 cells,YES (> 25 mg/ml)
"COc1ccc(-c2ccc(C=NNC(=O)c3ccccn3)o2)cc1Cl [PCH8, N′-{[5-(3-chloro-4-methoxyphenyl)-2-furyl]methylene}-2-pyridinecarbohydrazide]",IC50,"[1]; Trypanosoma cruzi, TULAHUEN, NIH3T3, 96 h, β-gal T. cruzi Tulahuen in NIH/3T3 cells, 4 days, read-out: IC50 T. cruzi growth inhibition",1600 nM
same,IC50,[1]; [2],1680 ± 490 nM
"O=C(NN=Cc1ccc(-c2ccc(Cl)c(Cl)c2)o1)c1ccccn1 [PCH7, N′-{[5-(3,4-dichlorophenyl)-2-furyl]methylene}-2-pyridinecarbohydrazide]",IC50,[1]; [2],35 ± 20 nM
"Cc1cc(Cl)cc(C)c1OCCCCCn1ccnc1 [CX5, 1-[5-(4-chloro-2,6-dimethylphenoxy)pentyl]-1H-imidazole]",IC50,[1]; [2],20.5 nM
"O=C(NN=Cc1ccc(-c2cccc(Cl)c2Cl)o1)c1ccncc1 [PCH3, N′-{[5-(2,3-dichlorophenyl)-2-furyl]methylene}isonicotinohydrazide]",IC50,[1]; [2],> 10000 nM
"O=c1c2c3c(sc2[nH]c(=S)n1Cc1ccccc1)CCC3 [3-benzyl-2-thioxo-1,2,3,5,6,7-hexahydro-4H-cyclopenta[4,5]thieno[2,3-d]pyrimidin-4-one]",IC50,[1]; [3],> 1 µg/mL
same,TC50 > 25 mg/ml,NIH/3T3 cells,NO (> 25 mg/ml)
"O=C(Cn1cnc([N+](=O)[O-])n1)Nc1cccc(C(F)(F)F)c1 [NT5, 2-(3-nitro-1H-1,2,4-triazol-1-yl)-N-[3-(trifluoromethyl)phenyl]acetamide]",IC50,[1]; [2],1060 ± 385 nM
"Cc1cc(OCCCCn2ccnc2)cc(C)c1Cl [CX3, 1-[4-(4-chloro-3,5-dimethylphenoxy)butyl]-1H-imidazole]",IC50,[1]; [2],5.1 nM
"O=C(Cn1cnc([N+](=O)[O-])n1)Nc1cc(Oc2cccnc2)cc([N+](=O)[O-])c1 [NT3, N-[3-nitro-5-(3-pyridinyloxy)phenyl]-2-(3-nitro-1H-1,2,4-triazol-1-yl)acetamide]",IC50,[1]; [4],4920 ± 1280 nM
"Br.Cc1ccnc(Nc2nc(-c3ccccn3)cs2)c1 [4-methyl-N-[4-(2-pyridinyl)-1,3-thiazol-2-yl]-2-pyridinamine hydrobromide]",IC50,[1]; [3],< 1 µg/mL
same,TC50 > 25 mg/ml,NIH/3T3 cells,NO (> 25 mg/ml)
"O=C(Cn1cnc([N+](=O)[O-])n1)Nc1ccc(Cl)cc1C(F)(F)F [NT7, N-[4-chloro-2-(trifluoromethyl)phenyl]-2-(3-nitro-1H-1,2,4-triazol-1-yl)acetamide]",IC50,[1]; [2],1290 ± 463 nM
"Cc1cc(OCCCCCn2ccnc2)cc(C)c1Cl [CX2, 1-[5-(4-chloro-3,5-dimethylphenoxy)pentyl]-1H-imidazole]",IC50,[1]; [2],2 nM
same,IC50,[1]; [5],2.5 nM
same,TC50,mammalian cells,19500 nM
"O=C(NN=Cc1ccc(-c2ccccc2Cl)o1)c1ccccn1 [PCH6, N′-{[5-(2-chlorophenyl)-2-furyl]methylene}-2-pyridinecarbohydrazide]",IC50,[1]; [2],2 nM
same,IC50,[1]; [5],2.1 nM
same,TC50,mammalian cells,18500 nM
"CCOc1ccc(-c2cn3c4ccccc4n(CCN(CC)CC)c3n2)cc1.Cl [{2-[2-(4-ethoxyphenyl)-9H-imidazo[1,2-a]benzimidazol-9-yl]ethyl}diethylamine hydrochloride]",IC50,[1]; [3],> 1 µg/mL
same,TC50 > 25 mg/ml,NIH/3T3 cells,NO (> 25 mg/ml)
"O=C(NN=Cc1cc(Br)cc(Br)c1O)c1cccc(N2CCCC2=O)c1 [N'-(3,5-dibromo-2-hydroxybenzylidene)-3-(2-oxo-1-pyrrolidinyl)benzohydrazide]",IC50,[1]; [3],> 1 µg/mL
same,TC50 > 25 mg/ml,NIH/3T3 cells,NO (> 25 mg/ml)
"O=C(NN=Cc1ccc(-c2cccc(Cl)c2)o1)c1ccccn1 [PCH5, N′-{[5-(3-chlorophenyl)-2-furyl]methylene}-2-pyridinecarbohydrazide]",IC50,[1]; [2],29 ± 20 nM
COc1ccc(NC(=S)NC(=O)c2ccco2)cc1 [N-{[(4-methoxyphenyl)amino]carbonothioyl}-2-furamide],IC50,[1]; [3],> 1 µg/mL
same,TC50 > 25 mg/ml,NIH/3T3 cells,YES (> 25 mg/ml)
"Cc1cc(Cl)cc(C)c1OCCCCn1ccnc1 [CX6, 1-[4-(4-chloro-2,6-dimethylphenoxy)butyl]-1H-imidazole]",IC50,[1]; [2],71.6 ± 37 nM
"O=C(NN=Cc1ccc(-c2cccc(Cl)c2Cl)o1)c1cccnc1 [PCH2, N′-{[5-(2,3-dichlorophenyl)-2-furyl]methylene}nicotinohydrazide]",IC50,[1]; [2],1930 ± 707 nM
"O=C(CCCn1cnc([N+](=O)[O-])n1)Nc1cc(C(F)(F)F)ccc1Cl [NT8, N-[2-chloro-5-(trifluoromethyl)phenyl]-4-(3-nitro-1H-1,2,4-triazol-1-yl)butanamide]",IC50,[1]; [2],983 ± 388 nM
"COc1cc(NC(=O)Cn2cnc([N+](=O)[O-])n2)cc([N+](=O)[O-])c1 [NT2, N-(3-methoxy-5-nitrophenyl)-2-(3-nitro-1H-1,2,4-triazol-1-yl)acetamide]",IC50,[1]; [4],2630 ± 808 nM
"O=C(NN=Cc1ccc(-c2ccccc2Cl)o1)c1cccnc1 [PCH10, N′-{[5-(2-chlorophenyl)-2-furyl]methylene}nicotinohydrazide]",IC50,[1]; [2],720 ± 183 nM
"O=C(CCCn1cnc([N+](=O)[O-])n1)Nc1ccccc1C(F)(F)F [NT9, 4-(3-nitro-1H-1,2,4-triazol-1-yl)-N-[2-(trifluoromethyl)phenyl]butanamide]",IC50,[1]; [2],3020 ± 1390 nM
"Cc1cc(Cl)cc(C)c1OCCCCCCn1ccnc1 [CX4, 1-[6-(4-chloro-2,6-dimethylphenoxy)hexyl]-1H-imidazole]",IC50,[1]; [2],300 nM
"CCN(CC)c1ccc(N=Cc2cccc(C)c2)cc1 [N,N-diethyl-N'-(3-methylbenzylidene)-1,4-benzenediamine]",IC50,[1]; [3],> 1 µg/mL
same,TC50 > 25 mg/ml,NIH/3T3 cells,YES (> 25 mg/ml)
"O=C(Cn1cnc([N+](=O)[O-])n1)Nc1cc(Oc2cncc(Cl)c2)cc([N+](=O)[O-])c1 [NT4, N-{3-[(5-chloro-3-pyridinyl)oxy]-5-nitrophenyl}-2-(3-nitro-1H-1,2,4-triazol-1-yl)acetamide]",IC50,[1]; [4],1270 ± 251 nM
